ChEMBL document CHEMBL1201862, “PubChem BioAssay data set” (2004)
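Method: 48-hour compound exposure of cells in 96-well plates, five concentrations, linear interpolation of endpoints. GI50: concentration for 50% inhibition of growth.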 Activity calls are given as the source filed them. Rule as the data show it: active = GI50 up to about 1.1 µM and inactive = higher.

Columns and labels:
Test in all cases: NCI-60 cell line screen, 48 h
[1] = test system: HCT-116
[2] = test system: HCC 2998
[3] = test system: LOX IMVI
[4] = test system: UACC-257
[5] = test system: MDA-N
[6] = test system: COLO 205
[7] = test system: MDA-MB-231
[8] = test system: SK-MEL-2
[9] = test system: NCI/ADR-RES
[10] = test system: T47D
[11] = test system: SR
[12] = test system: UO-31
[13] = test system: SF-539
[14] = test system: IGROV-1
[15] = test system: ACHN
[16] = test system: MDA-MB-435
[17] = test system: DU-145
[18] = test system: OVCAR-5
[19] = test system: CAKI-1
[20] = test system: NCI-H522

`c1ncc(C23C4C5C6C4C2C6C53)[nH]1` (centres undefined) was tested, and the GI50 [1] was > 100 µM (inactive), the GI50 [2] was > 100 µM (inactive) and the GI50 [3] was > 100 µM (inactive). For the same compound, the GI50 [4] was > 100 µM (inactive), the GI50 [5] was > 100 µM (inactive) and the GI50 [6] was > 100 µM (inactive). The GI50 [7] was > 100 µM (inactive), the GI50 [8] was > 100 µM (inactive) and the GI50 [9] was > 100 µM (inactive). For the same compound, the GI50 [10] was > 100 µM (inactive), the GI50 [11] was > 100 µM (inactive) and the GI50 [12] was > 100 µM (inactive). The GI50 [13] was > 100 µM (inactive), the GI50 [14] was > 100 µM (inactive) and the GI50 [15] was > 100 µM (inactive). The GI50 [16] was > 100 µM (inactive), the GI50 [17] was > 100 µM (inactive) and the GI50 [18] was > 100 µM (inactive). For the same compound, the GI50 [19] was > 100 µM (inactive).
For `O=C1c2cc3c(cc2CC12Cc1ccc4c(c1C2=O)CCC4)CCCC3` (centres undefined), the GI50 [1] was > 100 µM (inactive), the GI50 [2] was > 100 µM (inactive) and the GI50 [3] was > 100 µM (inactive). For the same compound, the GI50 [4] was > 100 µM (inactive), the GI50 [5] was > 100 µM (inactive) and the GI50 [7] was > 100 µM (inactive). The GI50 [8] was > 100 µM (inactive), the GI50 [9] was > 100 µM (inactive) and the GI50 [10] was > 100 µM (inactive). The GI50 [11] was 60 µM (inactive), the GI50 [12] was > 100 µM (inactive) and the GI50 [13] was > 100 µM (inactive). For the same compound, the GI50 [14] was > 100 µM (inactive), the GI50 [15] was > 100 µM (inactive) and the GI50 [16] was 76.4 µM (inactive). The GI50 [17] was > 100 µM (inactive), the GI50 [18] was > 100 µM (inactive) and the GI50 [19] was > 100 µM (inactive). The GI50 [20] was > 100 µM (inactive).
In the case of `COC12OC3(C4OC41)C(C(=O)O[C@H]3CO[Si](C)(C)C(C)(C)C)C2C(=O)Oc1ccccc1` (some centres undefined), the GI50 [1] is reported as > 100 µM (inactive), the GI50 [2] is reported as > 100 µM (inactive) and the GI50 [3] is reported as > 100 µM (inactive). The GI50 [4] was > 100 µM (inactive), the GI50 [5] was > 100 µM (inactive) and the GI50 [6] was > 100 µM (inactive). The GI50 [7] was 57.3 µM (inactive), the GI50 [8] was > 100 µM (inactive) and the GI50 [9] was > 100 µM (inactive). The GI50 [10] was > 100 µM (inactive), the GI50 [11] was > 100 µM (inactive) and the GI50 [12] was > 100 µM (inactive). The GI50 [14] was > 100 µM (inactive), the GI50 [15] was > 100 µM (inactive) and the GI50 [16] was > 100 µM (inactive). For the same compound, the GI50 [17] was > 100 µM (inactive), the GI50 [18] was > 100 µM (inactive) and the GI50 [19] was > 100 µM (inactive). For the same compound, the GI50 [20] was > 100 µM (inactive).
With `Cc1ccc(S(=O)(=O)NCCCSCCN)cc1` the GI50 [1] was > 100 µM (inactive), the GI50 [2] was > 100 µM (inactive) and the GI50 [3] was < 0.01 µM (active). The GI50 [4] was > 100 µM (inactive), the GI50 [5] was > 100 µM (inactive) and the GI50 [6] was > 100 µM (inactive). The GI50 [7] was > 100 µM (inactive), the GI50 [9] was > 100 µM (inactive) and the GI50 [10] was > 100 µM (inactive). For the same compound, the GI50 [11] was > 100 µM (inactive), the GI50 [12] was > 100 µM (inactive) and the GI50 [15] was > 100 µM (inactive). For the same compound, the GI50 [16] was > 100 µM (inactive), the GI50 [17] was > 100 µM (inactive) and the GI50 [20] was > 100 µM (inactive).
With `c1ccc2c(c1)c1c(n2CCOCCCN2CCCCC2)CCCC1` the GI50 [2] was 18 µM (inactive), the GI50 [4] was 16.8 µM (inactive) and the GI50 [5] was 21.8 µM (inactive). The GI50 [6] was 20.4 µM (inactive), the GI50 [7] was 20.5 µM (inactive) and the GI50 [8] was 18.7 µM (inactive). The GI50 [9] was 17.9 µM (inactive), the GI50 [10] was 17.2 µM (inactive) and the GI50 [11] was 15.2 µM (inactive). For the same compound, the GI50 [12] was 12.6 µM (inactive), the GI50 [13] was 15.7 µM (inactive) and the GI50 [14] was 14.7 µM (inactive). For the same compound, the GI50 [15] was 15.1 µM (inactive), the GI50 [16] was 18.1 µM (inactive) and the GI50 [17] was 44.7 µM (inactive). For the same compound, the GI50 [18] was 13.1 µM (inactive), the GI50 [19] was 18 µM (inactive) and the GI50 [20] was 15.3 µM (inactive).
For `CCCC(=O)Nc1cc2c3c(c1)CCCN3CCC2`, the GI50 [1] was > 10 µM (inactive), the GI50 [2] was > 10 µM (inactive) and the GI50 [3] was > 10 µM (inactive). The GI50 [4] was > 10 µM (inactive), the GI50 [5] was > 10 µM (inactive) and the GI50 [6] was > 10 µM (inactive). For the same compound, the GI50 [7] was > 10 µM (inactive), the GI50 [9] was > 10 µM (inactive) and the GI50 [10] was 6.01 µM (inactive). The GI50 [11] was > 10 µM (inactive), the GI50 [13] was > 10 µM (inactive) and the GI50 [14] was > 10 µM (inactive). The GI50 [15] was > 10 µM (inactive), the GI50 [16] was > 10 µM (inactive) and the GI50 [17] was > 10 µM (inactive). For the same compound, the GI50 [18] was > 10 µM (inactive), the GI50 [19] was > 10 µM (inactive) and the GI50 [20] was > 10 µM (inactive).
With `COc1ccc(C2C3CCc4ccccc4C3=NN2S(=O)(=O)c2cccc(C(=O)O)c2OC)cc1` (centres undefined) the GI50 [1] was 10.3 µM (inactive), the GI50 [3] was 12.7 µM (inactive) and the GI50 [5] was 2.52 µM (inactive). For the same compound, the GI50 [6] was 1.84 µM (inactive), the GI50 [7] was 10.4 µM (inactive) and the GI50 [8] was 15.7 µM (inactive). For the same compound, the GI50 [9] was 2.81 µM (inactive), the GI50 [10] was 4.83 µM (inactive) and the GI50 [11] was 3.8 µM (inactive). For the same compound, the GI50 [12] was 19.4 µM (inactive), the GI50 [13] was 6.21 µM (inactive) and the GI50 [14] was 1.09 µM (active). For the same compound, the GI50 [15] was 7.83 µM (inactive), the GI50 [16] was 1.79 µM (inactive) and the GI50 [17] was 27.7 µM (inactive). The GI50 [18] was 92.9 µM (inactive), the GI50 [19] was 22.5 µM (inactive) and the GI50 [20] was 3.19 µM (inactive).
For `Cc1cc2nc3c(C(O)CO)nn(-c4ccccc4)c3nc2cc1C` (centres undefined), the GI50 [1] was 15.3 µM (inactive), the GI50 [3] was 20.5 µM (inactive) and the GI50 [4] was 22 µM (inactive). For the same compound, the GI50 [5] was 18.3 µM (inactive), the GI50 [7] was 22.1 µM (inactive) and the GI50 [8] was 21.4 µM (inactive). The GI50 [9] was 16.1 µM (inactive), the GI50 [10] was 11.5 µM (inactive) and the GI50 [11] was 6.65 µM (inactive). For the same compound, the GI50 [12] was 15.1 µM (inactive), the GI50 [13] was 20.7 µM (inactive) and the GI50 [14] was 17.3 µM (inactive). For the same compound, the GI50 [15] was 14.4 µM (inactive), the GI50 [16] was 21.2 µM (inactive) and the GI50 [17] was 15.4 µM (inactive). For the same compound, the GI50 [18] was 22.3 µM (inactive), the GI50 [19] was 15.8 µM (inactive) and the GI50 [20] was 22.6 µM (inactive).
With `COC1CC(C)(NC(=O)C(F)(F)F)C2OC(c3ccccc3)OCC2O1` (centres undefined) the GI50 [1] was > 100 µM (inactive), the GI50 [3] was > 100 µM (inactive) and the GI50 [4] was > 100 µM (inactive). For the same compound, the GI50 [5] was > 100 µM (inactive), the GI50 [6] was > 100 µM (inactive) and the GI50 [7] was > 100 µM (inactive). For the same compound, the GI50 [9] was > 100 µM (inactive), the GI50 [10] was > 100 µM (inactive) and the GI50 [11] was > 100 µM (inactive). The GI50 [12] was > 100 µM (inactive), the GI50 [13] was > 100 µM (inactive) and the GI50 [14] was > 100 µM (inactive). For the same compound, the GI50 [15] was > 100 µM (inactive), the GI50 [16] was > 100 µM (inactive) and the GI50 [17] was > 100 µM (inactive). The GI50 [18] was > 100 µM (inactive), the GI50 [19] was > 100 µM (inactive) and the GI50 [20] was > 100 µM (inactive).
For `CC(C)CC1c2[nH]c3ccccc3c2C[C@H]2C(=O)NC(COC(C)(C)C)C(=O)N12` (some centres undefined), the GI50 [1] was 18.6 µM (inactive), the GI50 [3] was 17.3 µM (inactive) and the GI50 [4] was 19 µM (inactive). For the same compound, the GI50 [5] was 21.8 µM (inactive), the GI50 [6] was 20.4 µM (inactive) and the GI50 [7] was 18.7 µM (inactive). The GI50 [8] was 19.9 µM (inactive), the GI50 [9] was 20.8 µM (inactive) and the GI50 [10] was 13.2 µM (inactive). For the same compound, the GI50 [11] was 16.4 µM (inactive), the GI50 [12] was 32.1 µM (inactive) and the GI50 [14] was 23.3 µM (inactive). The GI50 [15] was 26.8 µM (inactive), the GI50 [16] was 20.5 µM (inactive) and the GI50 [17] was 34.5 µM (inactive). For the same compound, the GI50 [18] was 23.6 µM (inactive), the GI50 [19] was 28.2 µM (inactive) and the GI50 [20] was 16.4 µM (inactive).
For `CN1CCc2c([nH]c3ccccc23)C1`, the GI50 [1] was > 100 µM (inactive), the GI50 [2] was > 100 µM (inactive) and the GI50 [3] was > 100 µM (inactive). For the same compound, the GI50 [4] was > 100 µM (inactive), the GI50 [5] was > 100 µM (inactive) and the GI50 [6] was > 100 µM (inactive). The GI50 [7] was > 100 µM (inactive), the GI50 [8] was > 100 µM (inactive) and the GI50 [9] was > 100 µM (inactive). The GI50 [10] was > 100 µM (inactive), the GI50 [11] was > 100 µM (inactive) and the GI50 [12] was > 100 µM (inactive). For the same compound, the GI50 [14] was > 100 µM (inactive), the GI50 [15] was > 100 µM (inactive) and the GI50 [16] was > 100 µM (inactive). For the same compound, the GI50 [17] was > 100 µM (inactive), the GI50 [18] was > 100 µM (inactive) and the GI50 [19] was > 100 µM (inactive). For the same compound, the GI50 [20] was > 100 µM (inactive).
